Results reported in the NIST ThermoML archive (doi:10.1021/je900689m).

Experiments:
[1] = 101 kPa, Liquid; for viscosity: Capillary tube (Ostwald / Ubbelohde) method
[2] = xn = mol fraction of the nth substance listed; settings: 101 kPa, Liquid; for viscosity: Capillary tube (Ostwald / Ubbelohde) method

CC(C)Cc1ccccc1 [(2-methylpropyl)benzene]
[1]
Settings	mass density [kg/m3]	speed of sound [m/s]	viscosity [mPa·s]
303.15 K	844.4	1268	0.905
308.15 K	841.1	1252	0.848
313.15 K	837.6	1236	0.784

CC(C)Cc1ccccc1 [(2-methylpropyl)benzene] + CCOC=O
[2]
Settings	mass density, 303.15 K [kg/m3]	mass density, 308.15 K [kg/m3]	mass density, 313.15 K [kg/m3]	speed of sound, 303.15 K [m/s]	speed of sound, 308.15 K [m/s]	speed of sound, 313.15 K [m/s]	viscosity, 303.15 K [mPa·s]	viscosity, 308.15 K [mPa·s]	viscosity, 313.15 K [mPa·s]
x2 = 0	844.4	841.1	837.6	1268	1252	1236	0.905	0.848	0.784
x2 = 0.1772	849.5	845.8	842.1	1248	1228	1208	0.788	0.726	0.666
x2 = 0.3217	854.9	851	847	1224	1204	1184	0.699	0.641	0.591
x2 = 0.4514	860.8	856.8	852.6	1200	1180	1160	0.625	0.573	0.529
x2 = 0.5631	866.8	862.7	858.3	1180	1160	1140	0.569	0.522	0.48
x2 = 0.6604	873.3	868.8	864.3	1164	1144	1124	0.52	0.479	0.442
x2 = 0.7444	879.7	875	870.3	1148	1128	1108	0.481	0.445	0.413
x2 = 0.8191	886.3	881.5	876.6	1132	1112	1092	0.45	0.415	0.384
x2 = 0.8852	893.1	888	883	1120	1100	1080	0.418	0.388	0.362
x2 = 0.9461	900.5	895.3	890	1104	1084	1064	0.394	0.369	0.347

c1ccccc1 [benzene]
[1]
Settings	mass density [kg/m3]	speed of sound [m/s]	viscosity [mPa·s]
303.15 K	867.6	1276	0.569
308.15 K	863.2	1252	0.534
313.15 K	858.9	1228	0.497

c1ccccc1 [benzene] + CCOC=O
[2], x2 = 0
Settings	mass density [kg/m3]	speed of sound [m/s]	viscosity [mPa·s]
303.15 K	867.6	1276	0.569
308.15 K	863.2	1252	0.534
313.15 K	858.9	1228	0.497

CCCCc1ccccc1 [butylbenzene]
[1]
Settings	mass density [kg/m3]	speed of sound [m/s]	viscosity [mPa·s]
303.15 K	851.3	1308	0.901
308.15 K	848	1292	0.844
313.15 K	844.6	1276	0.787

CCCCc1ccccc1 [butylbenzene] + CCOC=O
[2]
Settings	mass density, 303.15 K [kg/m3]	mass density, 308.15 K [kg/m3]	mass density, 313.15 K [kg/m3]	speed of sound, 303.15 K [m/s]	speed of sound, 308.15 K [m/s]	speed of sound, 313.15 K [m/s]	viscosity, 303.15 K [mPa·s]	viscosity, 308.15 K [mPa·s]	viscosity, 313.15 K [mPa·s]
x2 = 0	851.3	848	844.6	1308	1292	1276	0.901	0.844	0.787
x2 = 0.1738	855.4	851.9	848.4	1284	1264	1244	0.782	0.713	0.65
x2 = 0.3241	860.3	856.6	852.9	1252	1232	1212	0.692	0.627	0.571
x2 = 0.4533	865.4	861.5	857.5	1220	1200	1180	0.625	0.569	0.518
x2 = 0.563	870.7	866.6	862.4	1196	1176	1156	0.571	0.521	0.476
x2 = 0.6587	876.3	872	867.6	1176	1156	1136	0.525	0.48	0.44
x2 = 0.744	882.2	877.6	873.1	1156	1136	1116	0.482	0.443	0.407
x2 = 0.8189	888.4	883.6	878.8	1140	1120	1100	0.451	0.412	0.381
x2 = 0.8855	894.5	889.6	884.6	1124	1104	1084	0.419	0.385	0.355
x2 = 0.9459	901.2	896	890.8	1108	1088	1068	0.398	0.366	0.336
